As a reminder, the IC50 is the concentration that inhibits the measured activity by half.

Molecules are shown by their SMILES.

We go through 7 molecules from paper PMC6278658, “Two New Altenusin/Thiazole Hybrids and a New Benzothiazole Derivative from the Marine Sponge-Derived Fungus Alternaria sp. SCSIOS02F49” (Molecules, 2018).

Experiment [1] is described as follows: DPPH radical scavenging activity. The conditions noted are these: for IC50: DPPH 0.1 mM in ethanol, 30 min at room temperature in the dark, absorbance at 517 nm, triplicates, read-out: DPPH Free Radical Scavenging Activity (IC50); for DPPH free-radical-scavenging activity compared with BHT: comparison with positive control BHT. The procedure: The DPPH (2,2-diphenyl-1-picrylhydrazyl) radical scavenging ability of the sample was conducted based on the method described by Kumagai et al. with minor modifications. The reaction mixture was with DPPH (0.1 mM, dissolved in ethanol) and various concentrations of sample in equal volumes, which was incubated at room temperature for 30 min in the dark. The absorbance of the mixture was measured at 517 nm using UV (UV-2600, UNICO Instrument Co. Ltd., Shanghai, China). The final concentrations of each compound in the wells were confined as 1000, 333, 111, 37.0, 12.3, 4.11, 1.37, and 0.46 μM. The ethanol and butylated hydroxytoluene (BHT), instead of samples, were used for a blank and positive control, respectively. Each assay was carried out in triplicates. IC50, the concentration of elimination of 50% DPPH radical scavenging activity, was measured by non-liner regression.
On the technique in general: Loss of DPPH colour is used to gauge radical scavenging.

Experiment [2] concerns the target T1, Human recombinant COX-2 enzyme (Homo sapiens, UniProt P35354).
T1 construct: purchased Cayman #700100
T1 sequence (P35354 18-604): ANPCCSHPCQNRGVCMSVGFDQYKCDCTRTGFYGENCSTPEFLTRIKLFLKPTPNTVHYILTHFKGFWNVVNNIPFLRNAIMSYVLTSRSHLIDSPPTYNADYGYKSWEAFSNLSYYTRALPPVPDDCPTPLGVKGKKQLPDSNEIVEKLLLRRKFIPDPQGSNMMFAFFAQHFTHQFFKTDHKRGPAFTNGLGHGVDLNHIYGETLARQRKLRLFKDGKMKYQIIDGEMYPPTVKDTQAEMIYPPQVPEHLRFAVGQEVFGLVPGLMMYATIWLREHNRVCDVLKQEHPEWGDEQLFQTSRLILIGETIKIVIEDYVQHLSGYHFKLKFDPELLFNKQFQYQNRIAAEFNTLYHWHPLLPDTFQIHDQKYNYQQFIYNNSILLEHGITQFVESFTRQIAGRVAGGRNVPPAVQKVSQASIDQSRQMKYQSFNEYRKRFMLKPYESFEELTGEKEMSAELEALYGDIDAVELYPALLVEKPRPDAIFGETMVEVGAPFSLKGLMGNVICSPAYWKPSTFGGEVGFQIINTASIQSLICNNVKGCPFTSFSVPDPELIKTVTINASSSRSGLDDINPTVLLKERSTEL
In words: COX-2 inhibitory activity assay (Cayman COX Fluorescent Inhibitor Screening Assay Kit). As to conditions: 15 min pre-incubation, arachidonic acid substrate, fluorescence 530/595 nm, triplicates. The format is biochemical. The procedure:
The COX-2 inhibitory activity assay of sample was conducted according to a previously reported method. […] Human recombinant COX-2 enzyme was pre-incubated with inhibitors for 15 min at normal temperature, followed by the addition of heme and fluorometric substrate and incubation for another 15 min at normal temperature. The reaction was started by the addition of arachidonic acid and allowed to proceed for 2 min. […] Each assay was carried out in triplicates. IC50, was measured by non-liner regression.

On the set-up of experiment [3]: method as in PMID 22061662. The conditions noted are these: previous study; cited from earlier work.

`COc1cc(O)cc(C2=C(C)C[C@H](O)C2=O)c1` [Compound 6, (S)-alternariphent A1]: the half-maximal inhibitory concentration (IC50) is more than 1000 µM in experiment [1] and more than 30 µM in experiment [2].
The corresponding values for `COC(=O)Cc1cc(O)cc2scnc12` [Compound 3, methyl 2-(6-hydroxybenzothiazol-4-yl) acetate] are more than 1000 µM and more than 30 µM.
Consider `Cc1cc(C(C)(C)C)c(O)c(C(C)(C)C)c1` [BHT, butylated hydroxytoluene, reference compound], for which the IC50 in experiment [1] was 170.3 ± 0.06 µM.
For `COc1cc(O)cc(-c2cc(O)c(O)cc2C)c1` [Compound 5, 5′-methoxy-6-methyl-biphenyl-3,4,3′-triol], the IC50 in experiment [1] amounted to 100.6 ± 0.025 µM; in experiment [2] it was 9.5 ± 0.08 µM. In addition, in experiment [1], the “DPPH free-radical-scavenging activity compared with BHT” value is on record as “higher DPPH free-radical-scavenging activities than BHT”. Further, the “radical scavenging activity in comparison with vitamin C” value in experiment [3] is recorded as “strong radical scavenging activity”.
For the molecule `COc1cc(O)c(C(=O)O)c(-c2cc(O)c(O)cc2C)c1` [Compound 4, Altenusin], in experiment [1], the IC50 turned out to be 10.7 ± 0.09 µM and the “DPPH free-radical-scavenging activity compared with BHT” value was “higher DPPH free-radical-scavenging activities than BHT”. Also, the IC50 in experiment [2] is more than 30 µM. For the same molecule, the “radical scavenging activity in comparison with vitamin C” value in experiment [3] was “strong radical scavenging activity”.
In the case of `COc1cc(O)c(C(=O)O)c(-c2c(C)cc(O)c3ncsc23)c1` [Compound 1, Altenusinoides A], the IC50 in experiment [1] is more than 1000 µM; in experiment [2], more than 30 µM.
Take `COc1cc(O)c(C(=O)O)c(-c2cc(O)c3ncsc3c2C)c1` [Compound 2, altenusinoides B]: the IC50 in experiment [1] is more than 1000 µM; in experiment [2], more than 30 µM.
